What all share (format): in vivo
Experiment [1] has as its system contact burn injury on the back of rats. The experiment can be described thus: Contact burn injury in rats: animals that died within 7 days. The following applies: within 7 days after burn injury, 10 mg/5 ml/kg intravenously, twice a day for 7 days, 7 animals in group. As for the experimental part: (§1) To confirm the therapeutic effect of 2-hydroxy-TTBA against burn injury, contact burn injury is induced for 30 seconds on the back of rats (on the both side of skin) using a brass comb preheated for 3 minutes in the boiling water (maintaining at 100° C.). After 5 minutes, 2-hydroxy-TTBA 10 mg/5 ml/kg were administered to intravenously for 5 minutes. Since then, twice-a-day administration (at an interval of 10˜12 hours) was sustained for 7 days on the same conditions. The same amount of saline without the compound was administered to the vehicle-treated group in the same manner. Groups of burn experiments were the same as below table 1.
When analyzing the results, number of animals of the normal group for comparison, number of animals in each group, and the number of animals that died within 7 days after the burn injury were shown in above table 1. Two rats in the burn control group died at 5 and 7 days, respectively, after burn injury, but all of another experimental group survived.

Experiment [2] shares this test system. The experiment can be described thus: Histology of zone of stasis after burn injury (hematoxylin-eosin, cresyl violet, Masson's trichrom staining). As for the experimental part: as §1
FIG. 3 is the result comparing the state of the epithelial layer through hematoxylin-eosin staining of tissues according to the groups. […] Some cases that hyperplasia of epidermis thicker than normal epithelial layers occurred could be also observed.
Eschar formation and frequency of wound epidermis formation was measured by analyzing total 28 tissue areas per group (4 zones of stasis per rat, 7 rats per group). As a result, the wound switching frequency of approximately 93% occurred in the burn control group was decreased to about 18% and 4%, respectively, in the veheicle-treated and 2-hydroxy-TTBA-treated groups. Also, the rate of wound epidermis formation was increased by approximately 32% and 72%, respectively, in comparison with the burn control group. The result was shown in the below table 2 (histological appearance: Eschar Formation and frequency of wound epidermis formation).
FIG. 4 was the photograph that observed the state of tissues of full-thickness skin through hematoxylin-eosin staining via 10× microscope.
FIG. 5 is the photograph observed the live cells in the zone of stasis by cresyl violet staining via 10× microscope. In the burn control group and the vehicle-treated group, follicles were rarely observed and large amounts of inflammatory cells were observed throughout the full-thickness skin.
FIG. 6 is the photograph that observed collagen of skin tissues and muscle fibers in the zone of stasis by Masson's trichrom staining. In the normal group, blue-stained collagen was evenly distributed throughout the dermis, and muscle fibers were stained red. In the burn control group, collagen was deposited irregularly below eschar, the level of staining was weak relative to the normal group. Almost of the muscle fibers were damaged and were not stained. In the vehicle-treated group, the amount of collagen was most abundantly observed relative to the other groups, even to a very high level compared to the normal control. In addition, the muscle fibers with damage were not stained, and significant amount of bleeding and infiltration of inflammatory cells were accompanied.

Experiment [3] shares this test system. The experiment can be described thus: Measurement of lactate dehydrogenase in serum through blood chemistry after burn injury. Conditions: 10 mg/5 ml/kg intravenously twice a day, FIG. 1. The procedure:
as §1
The Measurement of Lactate Dehydrogenase in Serum Through Blood Chemistry
Lactate dehydrogenase (LDH) is an enzyme distributed to almost all the tissues and catalyzing reversible reactions between pyruvic acid and lactic acid.
It is known that serum LDH level is elevated when tissues and cells are destroyed. Thus, the amount of LDH was measured in serum samples from each group except hemolyzed samples that may interfere with test results.

The test system is the same in experiment [4]. The experiment can be described thus: Observation of skin appearance on the back after burn injury (zone of stasis). Conditions: skin on the back 7 days after burn injury, FIG. 2. The procedure:
as §1
FIG. 2 is photographs that observed skin on the back 7 days after burn injury. Full thickness burns were induced in the both sides of back of experimental rats using a preheated brass comb with 4 rectangular shapes of size 10×20 mm. At 2 hours after induction, 4 pale-colored or darkish zones of coagulation (or zones of tissue necrosis) and 3 zones of stasis (or zones of tissue injury) appeared on the both sides of back. […]
Therefore, to evaluate the efficacy in this experiment, among the zone of stasis, the remaining 4 regions (a rectangular area indicated the dotted lines) except regions toward the head close to a medication vest among 6 areas appeared in a single rat were analyzed.

Where [5] appears, read: 28 tissue areas per group (4 zones of stasis per rat, 7 rats), 7 days after burn.
[6] abbreviates: zone of stasis, 7 days after burn, FIG. 4.

As for `O=C(O)c1cc(NCc2c(F)c(F)c(C(F)(F)F)c(F)c2F)ccc1O` [2-hydroxy-TTBA, 2-Hydroxy-5-(2,3,5,6-tetrafluoro-4-trifluoromethyl-benzylamino)-benzoic acid], the “Number of dead animals” value in experiment [1] was 0. Further, the “rate of wound epidermis formation, increase in comparison with the burn control group” value in experiment [2] (28 tissue areas per group) is on record as roughly 72%. For the same compound, in experiment [2] (setting [5]), the “Eschar formation (%)” value stood at 3.571% and the “Wound epidermis formation (%)” value worked out at 71.429%. Further, the Eschar formation frequency in experiment [2] (28 tissue areas per group, approximately 93% in burn control group) was roughly 4%. In experiment [2] (FIG. 3), the “State of the epithelial layer, hematoxylin-eosin staining” value was “wound epidermis formation was in progress”. In addition, in experiment [2] (FIG. 5), the “Inflammatory cells in the zone of stasis, cresyl violet staining” value is listed as “relatively few inflammatory cells were observed”; the “Live cells in the zone of stasis, cresyl violet staining” value was “live follicles and epithelia were observed”. In addition, in experiment [2] (setting [6]), the “Infiltration of inflammatory cells in full-thickness skin, hematoxylin-eosin staining” value is “considerably inhibited except in the areas of muscle cells and subcutaneous tissues”; the “Protection of skin structures in full-thickness skin, hematoxylin-eosin staining” value is “not only a wound epidermis formation but also protective effects even in the hair follicles, sebaceous glands and muscle layers appeared”. In addition, the “LDH value in serum compared to burn control group” value in experiment [3] was “reduced significantly”. Moreover, the “Skin condition by the naked eye” value in experiment [4] is listed as “restored to such a good skin condition that hair growth can be observed by the naked eye”. The “Formation of eschar such as scab (skin appearance)” value in experiment [4] (zone of stasis) is on record as “occurred rarely”.

For the origin of these results see patent US20120289602A1, “PHARMACEUTICAL COMPOSITION FOR TREATING OR PREVENTING BURN INJURIES” (priority 2009, published 2012).
